Experimental data: patent US12422443B2, “Amino-substituted chromenoquinoline-based fluorescent marker, and preparation and use thereof” (SOOCHOW UNIVERSITY, priority 2021, dated 2025)

Experiments:
[1] = test system: lipid droplets in Hela cells; assay: Lipid droplet labeling, colocalized confocal imaging with Nile Red in Hela cells; format: cell-based; conditions: 5 min; for lipid droplet labeling ability (in words): 1a and 1b 6 μM, 1c 5 μM, 1d 8 μM
From the text: In the following examples, the cells are imaged by laser confocal microscopy, where excitation at 405 nm is employed in the green light channel, and the fluorescence signal in the range of 468-550 nm is collected; and excitation at 561 nm is employed in the red light channel, and the fluorescence signal in the range of 570-750 nm is collected.
To test the fluorescent labeling ability of the fluorescent marker 1a compared with a commercial lipid droplet marker, the fluorescent marker 1a was prepared into a stock solution in dimethyl sulfoxide, and then added to a conventional cell culture medium, to give a concentration of the fluorescent marker 1a in the cell culture medium of 6 μM. Subsequently, Nile Red (100 nM), a lipid droplet red marker, was added and co-incubated with Hela cells in an incubator at saturated humidity, 37° C., and 5% CO2 for 5 min (the same below); The cells were washed three times with a PBS buffer, and imaged by laser confocal microscopy, where excitation at 405 nm was employed in the green light channel, and the fluorescence signal in the range of 468-550 nm was collected; and excitation at 561 nm was employed in the red light channel, and the fluorescence signal in the range of 570-750 nm was collected. The results are shown in FIG. 5, in which (a) is the bright field, (b) is the cell image with the fluorescent marker 1a, (c) is the cell image with the lipid droplet Red marker, (d) is overlapped image of the green light channel and the red light channel, (e) is the fluorescence intensity of the ROI line in the overlapped image, and (f) is the colocalization assay, where the colocalization coefficient is 0.95.
To verify the labeling effect of the fluorescent marker 1b (6 μM) on lipid droplets in Hela cells, the same experimental method as that with the fluorescent marker 1a was used.
The experimental method with the fluorescent marker 1c (5 μM) was the same as that with the fluorescent marker 1a.
To verify whether Compound 1d can be used in fluorescence imaging of lipid droplets in Hela cells just as the probes 1a-1c do, a cell assay was carried out. The fluorescent marker 1d was prepared into a stock solution in dimethyl sulfoxide, and then added to a conventional cell culture medium, to give a concentration of the fluorescent marker 1d in the cell culture medium of 8 μM. The Hela cells were co-incubated in an incubator at saturated humidity, 37° C., 5% CO2 for 5 min. The cells were washed three times with a PBS buffer, and imaged by laser confocal microscopy, where excitation at 405 nm was employed in the green light channel, and the fluorescence signal in the range of 468-550 nm was collected. […] The results are shown in FIG. 5, in which(s) is the bright field, (t) is the cell image with the fluorescent marker 1d, (u) is the cell image with the lipid droplet Red marker, (v) is overlapped image of the green light channel and the red light channel, (w) is the fluorescence intensity of the ROI line in the overlapped image, and (x) is the colocalization assay, where the colocalization coefficient is 0.90.

[2] = Ultraviolet absorption and fluorescence emission in dichloromethane; format: physicochemical; conditions: 10 μM in dichloromethane; for highest fluorescence intensity (emission wavelength): excitation 428 nm (1a), 407 nm (1b), 461 nm (1c), 430 nm (1d), slit 3 nm/3 nm (1d: 5 nm/3 nm)
Procedure: The ultraviolet absorption and fluorescence emission performances of the dyes 1a-1d prepared above (at a concentration of 10 μM) in dichloromethane were tested. The horizontal ordinate is the wavelength, and the vertical ordinate is the absorbance and fluorescence intensity, respectively.
The ultraviolet absorption and fluorescence emission spectra of the fluorescent marker 1a (at a concentration of 10 μM) in dichloromethane are shown in FIG. 3. The fluorescent marker 1a has the maximum absorption at 452 nm (FIG. 3 (a)); and the fluorescent marker 1a has the highest fluorescence intensity at 532 nm (FIG. 3 (e)), where the excitation wavelength is 428 nm, and the slit width is 3 nm/3 nm.
The ultraviolet absorption and fluorescence emission spectra of the fluorescent marker 1b (at a concentration of 10 μM) in dichloromethane are shown in FIG. 3. The fluorescent marker 1b has the maximum absorption at 473 nm (FIG. 3 (b)); and the fluorescent marker 1b has the highest fluorescence intensity at 562 nm (FIG. 3 (f)), where the excitation wavelength is 407 nm, and the slit width is 3 nm/3 nm.
The ultraviolet absorption and fluorescence emission spectra of the fluorescent marker 1c (at a concentration of 10 μM) in dichloromethane are shown in FIG. 3. The fluorescent marker 1c has the maximum absorption at 375 nm (FIG. 3 (c)); and the fluorescent marker 1c has the highest fluorescence intensity at 546 nm (FIG. 3 (g)), where the excitation wavelength is 461 nm, and the slit width is 3 nm/3 nm.
The ultraviolet absorption and fluorescence emission spectra of the fluorescent marker 1d (at a concentration of 10 μM) in dichloromethane are shown in FIG. 3. The fluorescent marker 1d has the maximum absorption at 429 nm (FIG. 3 (d)); and the fluorescent marker 1d has the highest fluorescence intensity at 495 nm (FIG. 3 (h)), where the excitation wavelength is 430 nm, and the slit width is 5 nm/3 nm.

[3] = Photostability under iodine-tungsten lamp irradiation (residual absorptivity); format: physicochemical; conditions: 10 μM in acetonitrile, 500 W iodine-tungsten lamp at 25 cm, 6 hrs irradiation
Procedure: The photostability of the above prepared dyes 1a-1d was tested (at a concentration of 10 μM). Dyes 1a-1d and the reference substance Cy7 of corresponding weights were weighed, and respectively dissolved in acetonitrile (at a concentration of 10 μM). All samples were irradiated with a Philips iodine-tungsten lamp (500 W), where the distance between the lamp and the sample was set to 25 cm. An 8 cm-thick sodium nitrite (60 g per liter) cold trap was placed between the lamp and the sample, to eliminate the heat and short-wavelength light. The irradiation was continued for 6 hrs, during which UV and fluorescence were performed every half hour. After six hours, the light stability was measured by residual absorptivity calculated based on the change in the absorption intensity at various times before and after the irradiation. […] It can be seen that dyes 1a-1d have higher photostability compared to cyanine dyes.

[4] = test system: mitochondria in Hela cells; assay: Mitochondria labeling, colocalized confocal imaging with CMA Ros in Hela cells; format: cell-based
[5] = 6 μM marker with Nile Red (100 nM)

Row | SMILES | lipid droplet labeling ability (in words) [1] | maximum absorption [2] | highest fluorescence intensity (emission wavelength) [2] | photostability (residual absorptivity) [3] | mitochondria labeling ability (in words) ([4]; 8 μM) | colocalization coefficient ([4]; 8 μM marker with CMA Ros (100 nM)) | colocalization coefficient [1, 5] | colocalization coefficient ([1]; 5 μM marker with Nile Red (100 nM))
1 | CCN(CC)c1ccc2c(c1)oc(=O)c1cc3c(ccc4nc5c(cc43)c(=O)oc3cc(N(CC)CC)ccc35)nc12 [1d] | does not stain the lipid droplets in the cells | 429 nm | 495 nm | 71% | has the ability to label mitochondria | 0.90 |  | 
2 | CCN(CC)c1ccc2nc3c(cc2c1)c(=O)oc1ccccc13 [1a] | has lipid droplet labeling ability in Hela cells | 452 nm | 532 nm | 46% |  |  | 0.95 | 
3 | CCN(CC)c1ccc2nc3c(cc2c1)c(=O)oc1cc(N(CC)CC)ccc13 [1b] | good targeting ability to lipid droplets in Hela cells | 473 nm | 562 nm | 43% |  |  | 0.97 | 
4 | CCN(CC)c1ccc2c(c1)oc(=O)c1cc3ccc4ccccc4c3nc12 [1c] | good targeting ability to lipid droplets in Hela cells | 375 nm | 546 nm | 76% |  |  |  | 0.85
